Measurements as given in patent US20260151517A1, “SOMATOSTATIN RECEPTOR-TARGETING RADIOPHARMACEUTICALS AND USES THEREOF” (Nuclidium AG, priority 2024, published 2026).
Where two headings read alike, the source gives them in different places. *1 amine or outer side, *2 acyl side, *3 side chain or, on linkers, in order; H or OH if unused. Where a SMILES comes first, the peptide text is derived from it. Bridges are numbered along the chain shown (N, C = ends). [ ]: non-standard residue; d: D form. The star is where a group is joined. NODAGA = O=C(O)CN1CCN(CC(=O)O)CCN(C(CCC(=O)*)C(=O)O)CC1; X1 = NC(=O)Nc1ccc(CC(N[*:1])C(=O)[*:2])cc1; Phe(4-Cl) = N[CH](Cc1ccc(Cl)cc1)C(=O)O

What was measured:
[1] = type: physicochemical; conditions: pH 7.4
Description: The mixture was vortexed for 30 min and then centrifuged at 3000 rpm to achieve phase separation. Aliquots from each phase were collected and measured in a gamma counter. The distribution coefficient was calculated as the average logarithmic values of the ratio between the radioactivity in the organic and the PBS phase.

in vivo [2] = conditions: athymic nude Foxn1^nu, mouse, total radioactivity
Description: (§2) Unless otherwise specified, the in vivo studies were performed on athymic nude Foxn1^nu 4-6 weeks-old mice. Animals were injected in the shoulder with HEK-SST2 cells (10^7 cells/200 μL) suspended in PBS. The in vivo experiments were performed when tumors reached a volume between 100-500 mm. At the intervention, all mice were between 7 and 11 weeks old.
(§3) The specificity study was performed parallel to pharmacokinetics studies. For this reason, NODAGA-LM3 was radiolabeled with ^64Cu.
(§4) The specificity of [^64Cu]Cu-NODAGA-LM3 for SSTR2-expressing tissues was evaluated in HEK-SST2 xenograft mice through a blocking study. The mice were administered with 0.15 MBq of [^64Cu]Cu-NODAGA-LM3 co-injected with a 2000-fold excess of DOTA-LM3 as a blocking agent. The mice were sacrificed 4 hours post-injection, and the organs were collected. weighed, and counted in a gamma counter.

in vivo [3] = assay: in vivo; parameters: species or system mice; conditions: athymic nude Foxn1^nu, mouse, iv, 13 MBq, total radioactivity
Description: Dynamic PET scans were acquired for 1 hour post-injection of the investigated radiopharmaceutical. The mice were euthanized using carbon dioxide at 4 hours post-injection, the bladder was mechanically emptied, and static PET scans were acquired for 30 min. PET images were obtained using the β-CUBE PET scanner system (MOLECUBES) and were decay corrected and reconstructed with the VivoQuant software version 4.0. Tomograms and helical CT scans of the whole mouse were first acquired using a NanoSPECT/CTTM scanner (Bioscan Inc.). CT images were reconstructed using CTReco (version r1.146), resulting in a pixel size of 0.2 mm. InVivoScope (version 1.43, Bioscan Inc.) software was used to generate the maximum intensity projection (MIP) of the co-registered PET/CT images presented in FIG. 10.

[4] = system: HEK-SST2 xenografted mice; assay: Biodistribution studies; type: in vivo; conditions: 4 hours post-injection, 1 MBq i.v.
Description: (§1) The dose of the administered radiopharmaceutical was 1 MBq ([…]) diluted to 100 μL with saline solution. The mice were euthanized at 4 hours post-injection, and the organs of interest were collected, rinsed, blotted, weighed, and analyzed in a gamma counter. The results were expressed as the percentage of injected activity per gram of tissue (% IA/g) and reported as mean±standard deviation in Table 32.

Biodistribution studies = type: in vivo, mice; conditions: athymic nude Foxn1^nu, mouse, iv, 1 MBq, total radioactivity
Description: as §1

HEK-SST2 xenograft mice = conditions: athymic nude Foxn1^nu, mouse, in vivo, 4 h
Description: as §2, §3, §4

CC(O)C1NC(=O)C(CCCCN)NC(=O)C(Cc2ccc(NC(N)=O)cc2)NC(=O)C(Cc2ccc(O)cc2)NC(=O)C(NC(=O)C(Cc2ccc(Cl)cc2)NC(=O)CCC(C(=O)O)N2CCN(CC(=O)O)CCN(CC(=O)O)CC2)CSSCC(C(=O)NC(Cc2ccc(O)cc2)C(N)=O)NC1=O (centres unmarked) [[^61Cu]Cu-NODAGA-LM3, metal not drawn] ({NODAGA}-[Phe(4-Cl)]CY[X1]KTCY-NH2; disulfide 2-7; configuration not given here)
logD [1]: -2.95 ± 0.08 | tissue uptake at 4 h (in vivo [2]; 0.15 MBq, Uptake Bone): 0.39 ± 0.07 %ID/g | tissue uptake at 4 h (in vivo [2]; 0.15 MBq, Uptake Pancreas): 0.55 ± 0.1 %ID/g | tissue uptake at 4 h (in vivo [2]; 0.15 MBq, Uptake Stomach): 1.31 ± 0.55 %ID/g | tissue uptake at 4 h (in vivo [2]; 0.15 MBq, Uptake Tumor): 37.9 ± 3.43 %ID/g | tissue uptake at 4 h (in vivo [2]; Uptake Blood): 0.11 ± 0.05 %ID/g | tissue uptake at 4 h (in vivo [2]; Uptake Bone): 0.01 ± 0.01 %ID/g | tissue uptake at 4 h (in vivo [2]; Uptake Heart): 0.14 ± 0.07 %ID/g | tissue uptake at 4 h (in vivo [2]; Uptake Intestine): 0.46 ± 0.01 %ID/g | tissue uptake at 4 h (in vivo [2]; Uptake Kidney): 3.52 ± 0.93 %ID/g | tissue uptake at 4 h (in vivo [2]; Uptake Liver): 0.96 ± 0.14 %ID/g | tissue uptake at 4 h (in vivo [2]; Uptake Lung): 0.67 ± 0.25 %ID/g | tissue uptake at 4 h (in vivo [2]; Uptake Muscle): 0.03 ± 0.01 %ID/g | tissue uptake at 4 h (in vivo [2]; Uptake Pancreas): 0.12 ± 0.03 %ID/g | tissue uptake at 4 h (in vivo [2]; Uptake Spleen): 0.21 ± 0.06 %ID/g | tissue uptake at 4 h (in vivo [2]; Uptake Stomach): 0.43 ± 0.14 %ID/g | tissue uptake at 4 h (in vivo [2]; Uptake Tumor): 0.52 ± 0.18 %ID/g | tissue uptake at 4 h (in vivo [2]; female, iv, 0.15 MBq, Uptake Intestine): 0.46 ± 0.04 %ID/g | tissue uptake at 4 h (in vivo [2]; female, iv, 0.15 MBq, Uptake Kidney): 4.41 ± 0.74 %ID/g | tissue uptake at 4 h (in vivo [2]; female, iv, 0.15 MBq, Uptake Lung): 0.6 ± 0.17 %ID/g | tissue uptake at 4 h (in vivo [2]; female, iv, 0.15 MBq, Uptake Spleen): 0.21 ± 0.1 %ID/g | tissue to tissue ratio (in vivo [3]): 4 | Uptake [% IA/g] Kidneys [4]: 3.87±0.51 % IA/g | tissue to tissue ratio at 4 h (Biodistribution studies; in vivo, Tumor-to-organ uptake ratio Tumor/Blood): 181 | tissue to tissue ratio at 4 h (Biodistribution studies; in vivo, Tumor-to-organ uptake ratio Tumor/Liver): 26 | tissue to tissue ratio at 4 h (Biodistribution studies; in vivo, Tumor-to-organ uptake ratio Tumor/Muscles): 185 | tissue to tissue ratio at 4 h (Biodistribution studies; in vivo, Tumor-to-organ uptake ratio Tumor/Pituitary): 5.3 | tissue uptake at 4 h (Biodistribution studies; in vivo, Uptake [% IA/g] Adrenal): 0.61 ± 0.18 %ID/g | tissue uptake at 4 h (Biodistribution studies; in vivo, Uptake [% IA/g] Blood): 0.11 ± 0.01 %ID/g | tissue uptake at 4 h (Biodistribution studies; in vivo, Uptake [% IA/g] Bone): 0.42 ± 0.12 %ID/g | tissue uptake at 4 h (Biodistribution studies; in vivo, Uptake [% IA/g] HEK-STT2-tumor): 19 ± 2.1 %ID/g | tissue uptake at 4 h (Biodistribution studies; in vivo, Uptake [% IA/g] Heart): 0.17 ± 0.02 %ID/g | tissue uptake at 4 h (Biodistribution studies; in vivo, Uptake [% IA/g] Intestine): 0.58 ± 0.12 %ID/g | tissue uptake at 4 h (Biodistribution studies; in vivo, Uptake [% IA/g] Liver): 0.73 ± 0.06 %ID/g | tissue uptake at 4 h (Biodistribution studies; in vivo, Uptake [% IA/g] Lung): 0.42 ± 0.05 %ID/g | tissue uptake at 4 h (Biodistribution studies; in vivo, Uptake [% IA/g] Muscle): 0.1 ± 0.02 %ID/g | tissue uptake at 4 h (Biodistribution studies; in vivo, Uptake [% IA/g] Pancreas): 0.44 ± 0.24 %ID/g | tissue uptake at 4 h (Biodistribution studies; in vivo, Uptake [% IA/g] Pituitary): 3.64 ± 0.31 %ID/g | tissue uptake at 4 h (Biodistribution studies; in vivo, Uptake [% IA/g] Spleen): 0.18 ± 0.02 %ID/g | tissue uptake at 4 h (Biodistribution studies; in vivo, Uptake [% IA/g] Stomach): 0.79 ± 0.13 %ID/g | tissue uptake at 4 h (Biodistribution studies; kidneys, 4 hours post-injection, 1 MBq i.v., read-out: Uptake [% IA/g] Kidneys): 3.87 ± 0.51 %ID/g | tissue to tissue ratio at 4 h (Biodistribution studies; tumor / all organs except kidneys, 4 hours post-injection, read-out: tumor-to-organ uptake ratio, all the organs except for kidneys): > 5 | tissue to tissue ratio at 4 h (Biodistribution studies; tumor/kidney, 4 hours post-injection, read-out: Tumor-to-organ uptake ratio Tumor/Kidney): 4.9 | Uptake Blood (HEK-SST2 xenograft mice): 0.10 ± 0.02 % IA/g | Uptake Heart (HEK-SST2 xenograft mice): 0.20 ± 0.01 % IA/g | Uptake Liver (HEK-SST2 xenograft mice): 0.90 ± 0.20 % IA/g | Uptake Muscle (HEK-SST2 xenograft mice): 0.02 ± 0.01 % IA/g
